Source: US12365687B2 (Hoffmann-La Roche Inc., priority 2021, dated 2025)

Legend:
[1] = biological target: human GABAA α5β2γ1 receptor (Homo sapiens (Human), UniProt P31644+Q8N1C3); experiment: Radioligand binding assay for γ1-containing GABAA subtypes, [3H]RO7239181 competition (α5β2γ1)
[2] = biological target: human GABAA α1β3γ2 receptor (Homo sapiens (Human), UniProt P14867+P18507); experiment: Radioligand binding assay for γ2-containing GABAA subtypes, [3H]Flumazenil competition (α1β3γ2); details: for γ2/γ1 Selectivity Ratio: Ki α1β3γ2 (nM)/Ki α2β2γ1 (nM); for LogSel: Log[Ki α1β3γ2 (nM)/Ki α2β2γ1 (nM)]
[3] = biological target: human GABAA α1β2γ1 receptor (Homo sapiens (Human), UniProt P14867+Q8N1C3); experiment: Radioligand binding assay for γ1-containing GABAA subtypes, [3H]RO7239181 competition (α1β2γ1)
Description: The affinity of compounds at GABAA γ1 subunit-containing receptors was measured by competition for [^3H]RO7239181 (67.3 Ci/mmol; Roche) binding to membranes from HEK293F cells (ThermoFisher R79007) expressing human (transiently transfected) receptors of composition α5β2γ1, α2β2γ1, α1β2γ1.
Harvested pellets from HEK293F cells expressing the different GABAA receptor subtypes were resuspended in Mannitol Buffer pH 7.2-7.4 (Mannitol 0.29 M, Triethylamine 10 mM, Acetic acid 10 mM, EDTA 1 mM plus protease inhibitors (20 tablets Complete, Roche Diagnostics Cat. No. 05 056 489 001 per liter)), washed two times and then resuspended at 1:10 to 1:15 dilution in the same buffer. Cell disruption was performed by stirring the suspension in a Parr vessel #4637 at 435 psi for 15 minutes, and then the suspensions were centrifuged at 1000×g for 15 minutes at 4° C. (Beckman Avanti J-HC; rotor JS-4.2). The supernatant (S1) was transferred in a 2 l Schott flask and the pellet (P1) was resuspended with Mannitol Buffer up to 175 ml. The resuspended pellet was transferred into a 250 ml Corning centrifugal beaker and centrifuged at 1500×g for 10 minutes at 4° C. (Beckman Avanti J-HC; rotor JS-4.2). The supernatant (S1) was then transferred in the 2 l Schott flask and the pellet was discarded. The supernatants (S1) were centrifuged in 500 ml Beckman polypropylene centrifugal beaker at 15′000×g for 30 minutes at 4° C. (Beckman Avanti J-20 XP; rotor JLA-10.500). The pellet (P2) was resuspended with Mannitol Buffer 1:1 and frozen at −80° C. The supernatant (S2) was centrifuged in 100 ml Beckman polypropylene centrifugal tubes at 48000×g for 50 minutes at 4° C. (Beckman Avanti J-20 XP; rotor JA-18). The supernatant (S3) was discarded and the pellet (P3) was resuspended with 1:1 Mannitol Buffer. The P2 and P3 protein concentration was determined with the BIORAD Standard assay method with bovine serum albumin as standard and measured on the NANO-Drop 1000. The membrane suspension was aliquots (500 μl per tube) and stored at −80° C. until required.
Membrane homogenates were resuspended and polytronised (Polytron PT1200E Kinematica AG) in Potassium Phosphate 10 mM, KCl 100 mM binding buffer at pH 7.4 to a final assay concentration determined with a previous experiment.
Assays were incubated to equilibrium for 1 hour at 4° C. and then, membranes were filtered onto unifilter (96-well white microplate with bonded GF/C filters preincubated 20-50 minutes in 0.3% Polyethylenimine) with a Filtermate 196 harvester (Packard BioScience) and washed 4 times with cold Potassium Phosphate 10 mM pH 7.4, KCl 100 mM binding buffer. After anhydrousing, filter-retained radioactivity was detected by liquid scintillation counting. Ki values were calculated using Excel-Fit (Microsoft) and are the means of two determinations.

[4] = biological target: human GABAA α2β2γ1 receptor (Homo sapiens (Human), UniProt P47869+Q8N1C3); experiment: Radioligand binding assay for γ1-containing GABAA subtypes, [3H]RO7239181 competition (α2β2γ1)
[5] = biological target: α2β2γ1 GABAA receptor subtype (Homo sapiens (Human), UniProt P47869+Q8N1C3); experiment: Two-electrode voltage clamp electrophysiology in Xenopus oocytes expressing GABAA receptors (modulation of GABA EC20 current); type: cell-based; details: for Efficacy (GABA)%: % modulation of GABA EC20 = 100*(Fold increase-1), α2β2γ1 oocytes, compound at approx. 30-fold Ki; for Fold increase h-GABA-A α2β2γ1 oocyte @ 30-fold Ki: Xenopus oocytes expressing α2β2γ1, compound at approx. 30-fold its Ki α2β2γ1, GABA EC20 current
Outline: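 Each concentration was tested on ≥3 oocytes held at −80 mV at room temperature, recorded 3-5 days post-injection. A control and a test response to EC20 GABA (1.5 min each) were superimposed and their point-by-point ratio taken. Peak ratio reported as % modulation of GABA EC20 = 100×(fold increase−1).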

[6] = Ki h-GABAA α2β2γ1, [3H]RO7239181 competition binding, human GABAA α2β2γ1
[7] = Ki h-GABAA α2β2γ1, displacement of [3H]RO7239181, membranes of HEK293F cells expressing human receptors, means of two determinations

Compound	Ki [1] [nM]	Ki [2] [nM]	γ2/γ1 Selectivity Ratio [2]	LogSel [2]	Ki [3] [nM]	Ki [4, 6] [nM]	Ki [4, 7] [nM]	Efficacy (GABA)% [5] [%]	Fold increase h-GABA-A α2β2γ1 oocyte @ 30-fold Ki [5]
COC1CN(C(=O)c2nc3n(n2)-c2ccc(C(F)(F)F)c(Cl)c2C(c2ncccc2F)=N[C@H]3C)C1 [Example 103, [(4S)-7-chloro-6-(3-fluoro-2-pyridyl)-4-methyl-8-(trifluoromethyl)-4H-[1,2,4]triazolo[1,5-a][1,4]benzodiazepin-2-yl]-(3-methoxyazetidin-1-yl)methanone]	9.87	> 30000	1183.4	3.07	178	25.4	25.3	113	2.13
C[C@@H]1N=C(c2c(F)cccc2F)c2c(ccc(C(F)(F)F)c2Cl)-n2nc(C(=O)NCCF)nc21 [Example 106, (4S)-7-chloro-6-(2,6-difluorophenyl)-N-(2-fluoroethyl)-4-methyl-8-(trifluoromethyl)-4H-[1,2,4]triazolo[1,5-a][1,4]benzodiazepine-2-carboxamide]	2.94	4190	185.1	2.27	104	22.6	22.6	90	1.90
CCOC1CN(C(=O)c2nc3n(n2)-c2ccc(C(F)(F)F)c(Cl)c2C(c2ncccc2F)=N[C@H]3C)C1 [Example 137, [(4S)-7-chloro-6-(3-fluoro-2-pyridyl)-4-methyl-8-(trifluoromethyl)-4H-[1,2,4]triazolo[1,5-a][1,4]benzodiazepin-2-yl]-(3-ethoxyazetidin-1-yl)methanone]	6.58	10500	246.0	2.39	130	42.6	42.6	129	2.29
